In this assay the test system is mature cyclic rats. In words: Ovulation inhibition in rat (in vivo progestagenic activity). The note with it: 96 h, minimal active dose: level at which average number of ova is reduced by 60% relative to placebo, oral administration for 1 complete cycle (4 days), read-out: MAD. The procedure:
Ovulation inhibition after oral administration of the compounds of the invention was studied in mature cyclic rats. Animals were treated with test compound (oral administration) for 1 complete cycle (4 days, from oestrus to pro-oestrus) and the number of ova in the oviduct was microscopically assessed at autopsy in the morning of the next (expected) oestrus. The average number of ova per rat was calculated; the minimal active dose (MAD) is defined as the level at which the average number of ova is reduced by 60% relative to placebo-treated animals.

SMILES strings stand for the structures.

Consider `N#Cc1cc2c(cc1F)Oc1ccccc1[C@@H]1[C@@H](NC(=O)C(F)(F)F)CCCN21` (single isomer, unassigned) [Example 2, (-)-(cis)-N-(7-cyano-8-fluoro-1,3,4,14b-tetrahydro-2H-dibenzo[b,f]pyrido[1,2-d] [1,4]oxazepin-1-yl)-2,2,2-trifluoroacetamide], for which the minimal effective dose came to 0.014 mg/kg. Regarding `CC(=O)N[C@H]1CCCN2c3c(cc(F)c(C#N)c3Cl)Oc3cccc(F)c3[C@H]12` (single isomer, unassigned) [Example 6, (-)-(cis)-N-(6-chloro-7-cyano-8,14-difluoro-1,3,4,14b-tetrahydro-2H-dibenzo[b,f]pyrido[1,2-d][1,4]oxazepin-1-yl)acetamide], the minimal effective dose is under 0.02 mg/kg. In the case of `N#Cc1c(F)cc2c(c1Cl)N1CCC[C@H](NC(=O)C(F)(F)F)[C@H]1c1cccc(F)c1O2` (single isomer, unassigned) [Example 7, (-)-(cis)-N-(6-chIoro-7-cyano-8,11-difluoro-1,3,4,14b-tetrahydro-2H-dibenzo[b,f]pyrido[1,2-d][1,4]oxazepin-1-yl)-2,2,2-trifluoroacetamide], the minimal effective dose stood at 0.025 mg/kg. In the case of `C=Cc1cccc2c1N1CCC[C@H](NC(=O)C(F)(F)F)[C@H]1c1ccccc1O2` (single isomer, unassigned) [eutomer of example 54 of WO03/084963, reference compound], the minimal effective dose is over 4 mg/kg. As for `N#Cc1c(F)cc2c(c1Cl)N1CCC[C@@H](NC(=O)C(F)(F)F)[C@@H]1c1ccccc1O2` [Example 3, (-)-(cis)-N-[6-chloro-7-cyano-8-fluoro-1,3,4,14b-tetrahydro-2H-dibenzo[b,f]pyrido[1,2-d][1,4]oxazepin-1-yl]-2,2,2-trifluoroacetamide], the minimal effective dose came to 0.08 mg/kg. In the case of `N#Cc1c(F)cc2c(c1C#N)N1CCC[C@@H](NC(=O)C(F)(F)F)[C@@H]1c1ccccc1O2` [Example 4, (-)-(cis)-N-(6,7-dicyano-8-fluoro-1,3,4,14b-tetrahydro-2H-dibenzo[b,f]pyrido [1,2-d][1,4]oxazepin-1-yl)-2,2,2-trifluoroacetamide] it was 0.02 mg/kg; in that of `N#Cc1c(F)cc2c(c1Cl)N1CCC[C@@H](NC(=O)C(F)(F)F)[C@@H]1c1ccc(F)cc1O2` [Example 5, (-)-(cis)-N-(6-chloro-7-cyano-8,12-difluoro-1,3,4,14b-tetrahydro-2H-dibenzo[b,f]pyrido[1,2-d][1,4]oxazepin-1-yl)-2,2,2-trifluoroacetamide], at most 0.025 mg/kg; in that of `N#Cc1cc2c(cc1F)Oc1cccc(F)c1[C@H]1[C@H](NC(=O)C(F)(F)F)CCCN21` [Example 8, (-)-(cis)-N-(7-cyano-8,14-difluoro-1,3,4,14b-tetrahydro-2H-dibenzo[b,f]pyrido [1,2-d][1,4]oxazepin-1-yl)-2,2,2-trifluoroacetamide], 0.01 mg/kg. As to `N#Cc1c(F)cc2c(c1Cl)N1CCC[C@@H](NC(=O)C(F)(F)F)[C@@H]1c1c(F)cccc1O2` [Example 9, (-)-(cis)-N-(6-chloro-7-cyano-8,14-difluoro-1,3,4,14b-tetrahydro-2H-dibenzo [b,f]pyrido[1,2-d][1,4]oxazepin-1-yl)-2,2,2-trifluoroacetamide], the minimal effective dose was under 0.02 mg/kg.

For the origin of these results see patent EP2066677B1, “PYRIDOOXAZEPINE PROGESTERON RECEPTOR MODULATORS” (N.V. Organon, priority 2006, dated 2008).
